Laboratory results published in PMC9804489, “Phase 1/1b Studies of UCB0599, an Oral Inhibitor of α‐Synuclein Misfolding, Including a Randomized Study in Parkinson's Disease” (Movement Disorders, 2022).
Where two headings read alike, the source gives them in different places.

How the values were obtained:
[1] = UP0078 phase 1 food/ITZ study: safety and tolerability in healthy participants
Description: UP0078 was a phase 1, open‐label study to evaluate the potential effect of food on the bioavailability of UCB0599 and to test the potential effect of ITZ on the disposition of UCB0599 in HPs. A randomized, two‐way crossover design with a third fixed‐treatment period was used (Fig. S2).
Participants received a single 180 mg dose of UCB0599 on three separate occasions, with a washout period of ≥7 days between doses. The first dose was administered under fasted conditions, the second under fed conditions, and the third under fasted conditions co‐administered with ITZ (200 mg once daily, days 15–22).
The study was conducted at a phase 1 unit in the United Kingdom.
The primary objectives were to assess the potential effect of food intake (standard high‐fat, high‐calorie meal) on single‐dose PK of UCB0599 and to evaluate and compare the single‐dose PK of UCB0599 in the presence or absence of ITZ. The secondary and exploratory objectives were to evaluate the safety and tolerability of UCB0599 under fasted and fed conditions, and with/without concomitant administration of ITZ; to evaluate UCB0599 metabolite plasma PK in the presence or absence of ITZ; and to assess the potential effect of food intake on the single‐dose PK of UCB0599 metabolites.
Primary PK variables were AUC0–t , AUC0–inf, C max, and t max. Primary safety variables were the incidence of TEAEs and serious TEAEs. […]

[2] = UP0030 phase 1 study: plasma pharmacokinetics of UCB0599 and its metabolites; assay type: in vivo, human; details: for AUC: read-out: AUC, GeoMean; for Cmax: read-out: C max, GeoMean
Description: Statistical evaluations for all three studies were performed using SAS version 9.4 (SAS, Cary, NC, USA), and PK data were analyzed using Phoenix WinNonlin software (Certara, Princeton, NJ, USA). Continuous variables were summarized with number of participants, mean, standard deviation, median, minimum and maximum, and confidence intervals (CI) for the mean. Categorical variables were summarized with frequency counts and percentages.

[3] = UP0030 phase 1 SAD/MAD study: safety and tolerability in healthy participants
Description: Part 1 (Fig. S1A) was a randomized, subject‐ and investigator‐blind, placebo‐controlled study in healthy older participants (HOP). Part 2 (Fig. S1B) was an open‐label, two‐way crossover study in HPs.
Part 1 included five cohorts (1, 2, 1b, 2b, and 3) and evaluated SADs (SAD: 90, 180, 360, and 450 mg) and MADs of UCB0599 (MAD: 180 and 360 mg/day). […] The first two doses were administered as a two‐way crossover (under fasting/fed or fed/fasting conditions), and the third dose was administered to both arms under fasted conditions with 200 mg of ITZ (once daily, days −3 to 2) to assess potential drug–drug interactions.
Eligible participants were aged ≥18 years (part 1, 55–75 years for HOP; part 2, <55 years) with a body mass index (BMI) of 18–32 kg/m^2 and a body weight of ≥50 kg. The study was conducted at a phase 1 unit in Germany.
The primary objective was to evaluate the safety and tolerability of UCB0599 after the administration of single and multiple doses in HOP. The secondary objectives are to evaluate the PK of UCB0599 and its desmethyl and N‐oxide metabolites after the administration of single and multiple doses in HOP and to evaluate the PK, safety, and tolerability of UCB0599 in HPs when given a single dose alone, with food or with ITZ.
Safety variables included the incidence of any treatment‐emergent adverse event (TEAE), changes in vital signs, laboratory assessments, 12‐lead electrocardiogram (ECG) and Holter ECG assessment, and the Columbia Suicide Severity Rating Scale (C‐SSRS). PK variables included maximum plasma concentration (C max), time of maximum concentration (t max), AUC (area under the plasma concentration–time curve) from time 0 to last quantifiable concentration (AUC0–t ), AUC from time 0 to infinity (AUC0–inf), apparent total body clearance, apparent volume of distribution, and apparent elimination half‐life (t 1/2).

[4] = human, plasma, oral, UP0030 single dose 90 mg
[5] = human, plasma, oral, UP0030 single dose 450 mg
[6] = UP0030, UCB0599 180 mg/day, n=17
[7] = UP0030 part 2, fasted UCB0599 360 mg, n=3
[8] = UP0030 part 2, fed UCB0599 360 mg, n=3

CCC(C)n1ncn(-c2ccc(N3CCN(c4ccc(OCC5COC(Cn6cncn6)(c6ccc(Cl)cc6Cl)O5)cc4)CC3)cc2)c1=O (stereo not drawn) [ITZ, itraconazole, reference compound]
TEAE considered related to the substance [1]: 9.1%

CCCC[C@H](Cc1c[nH]c2ccccc12)NC(=O)c1cnc(N2CCN(C)CC2)s1 [UCB0599]
Plasma steady‐state concentration achieved, on average ([2]; UP0030, 180 mg/day): ≤ 7 days | Tmax ([2]; human, plasma, oral, UP0030, UCB0599 180 mg/day, read-out: Median t max after multiple doses): 1.5 to 3 h | Tmax ([2]; human, plasma, oral, UP0030 single ascending doses 90–450 mg, read-out: t max range): 1.5 to 2 h | half-life ([2]; human, plasma, oral, UP0030 single ascending doses of UCB0599, across dose groups, read-out: Apparent elimination half‐life, GeoMean range): 10.6 to 13 h | AUC [2, 4]: 3.23 µg·h/mL | Cmax [2, 4]: 0.374 µg/mL | AUC [2, 5]: 17 µg·h/mL | Cmax [2, 5]: 1.81 µg/mL | Hypersensitivity reactions ([3]; UP0030): 2 n | Treatment‐related patterns for vital signs, ECG tracings, or laboratory findings ([3]; UP0030): no discernible UCB0599 treatment‐related patterns | TEAE Diarrhea ([3]; UP0030, UCB0599 90 mg, n=9): 0 n (%) […] | TEAE Drug hypersensitivity ([3]; UP0030, UCB0599 90 mg, n=9): 0 n (%) […] | TEAE Fatigue ([3]; UP0030, UCB0599 90 mg, n=9): 0 n (%) […] | TEAE Nasopharyngitis ([3]; UP0030, UCB0599 90 mg, n=9): 0 n (%) […] | TEAE Diarrhea ([3]; UP0030, UCB0599 180 mg, n=17): 0 n (%) […] | TEAE Drug hypersensitivity ([3]; UP0030, UCB0599 180 mg, n=17): 0 n (%) […] | TEAE Fatigue ([3]; UP0030, UCB0599 180 mg, n=17): 0 n (%) […] | TEAE Headache ([3]; UP0030, UCB0599 180 mg, n=17): 0 n (%) […] | TEAE Myalgia ([3]; UP0030, UCB0599 180 mg, n=17): 0 n (%) […] | TEAE Nasopharyngitis ([3]; UP0030, UCB0599 180 mg, n=17): 0 n (%) […] | TEAE Postlumbar puncture syndrome ([3]; UP0030, UCB0599 180 mg, n=17): 0 n (%) […] | TEAE Diarrhea [3, 6]: 0 n (%) […] | TEAE Fatigue [3, 6]: 0 n (%) […] | TEAE Postlumbar puncture syndrome [3, 6]: 0 n (%) […] | TEAE Presyncope [3, 6]: 0 n (%) […] | TEAE Drug hypersensitivity ([3]; UP0030, UCB0599 360 mg, n=18): 0 n (%) […] | TEAE Myalgia ([3]; UP0030, UCB0599 360 mg, n=18): 0 n (%) […] | TEAE Nasopharyngitis ([3]; UP0030, UCB0599 360 mg, n=18): 0 n (%) […] | TEAE Presyncope ([3]; UP0030, UCB0599 360 mg, n=18): 0 n (%) […] | TEAE Drug hypersensitivity ([3]; UP0030, UCB0599 450 mg, n=9): 0 n (%) […] | TEAE Fatigue ([3]; UP0030, UCB0599 450 mg, n=9): 0 n (%) […] | TEAE Myalgia ([3]; UP0030, UCB0599 450 mg, n=9): 0 n (%) […] | TEAE Presyncope ([3]; UP0030, UCB0599 450 mg, n=9): 0 n (%) […] | TEAE Puncture site pain ([3]; UP0030, UCB0599 450 mg, n=9): 0 n (%) […] | Time to resolution of HSRs ([3]; UP0030, after oral antihistamines): ≤ 3 days | Participants reporting serious TEAEs ([3]; UP0030 part 1): 4.4% | Deaths ([3]; UP0030 part 1, all UCB0599 N=45): 0 n (%) […] | Discontinuations due to drug hypersensitivity ([3]; UP0030 part 1, total UCB0599): 2 participants | Participants reporting TEAEs ([3]; UP0030 part 1, total UCB0599): 66.7% | Participants reporting severe TEAEs ([3]; UP0030 part 1, total UCB0599): 6.7% | Participants who discontinued due to TEAEs ([3]; UP0030 part 1, total UCB0599): 11.1% | Any TEAEs [3, 7]: 0 n (%) […] | Deaths [3, 7]: 0 n (%) […] | Discontinuations due to TEAEs [3, 7]: 0 n (%) […] | Drug‐related TEAEs [3, 7]: 0 n (%) […] | Serious TEAEs [3, 7]: 0 n (%) […] | Severe TEAEs [3, 7]: 0 n (%) […] | Participants reporting TEAEs ([3]; UP0030 part 2, fed UCB0599 360 mg): 33.3% | Deaths [3, 8]: 0 n (%) […] | Discontinuations due to TEAEs [3, 8]: 0 n (%) […] | Drug‐related TEAEs [3, 8]: 0 n (%) […] | Serious TEAEs [3, 8]: 0 n (%) […] | Severe TEAEs [3, 8]: 0 n (%) […]
